The target of experiment [1] is T1, β-secretase (BACE-1) (Homo sapiens, UniProt P56817).
T1 construct: purchased Pan Vera; host or cells: baculovirus expression system
As to the kind of experiment: Kinetic study against β-secretase (Lineweaver–Burk and Dixon plots). The class given is biochemical. The method, then:
(§1) The Lineweaver–Burk plots were drawn to determine the type of inhibition these compounds display against AChE and BChE (refer to Figure S2. In the Supplementary Material for the corresponding graphs).
(§2) Kinetic evaluation of 2l and 2p against ChEs or β-secretase were conducted following similar procedures previously employed for the corresponding flavonol precursors.

The target in the next experiment is AChE (Homo sapiens, UniProt P22303). As to the kind of experiment: Kinetic study against AChE (Lineweaver–Burk and Dixon plots). The class given is biochemical. As to the method:
as §1, §2

For experiment [2], the target named is butyrylcholinesterase (BChE) (Homo sapiens, UniProt P06276). Description: biochemical. The method, then: (§3) The IC50 and standard deviation values were determined graphically using Graph Pad Prism.
Experiment [3] can be described thus: DPPH radical scavenging activity assay. As to conditions: DPPH 0.20 mM in methanol, 45 min in the dark, mean ± SD. As to the method: The test compounds at various concentration ranging from (0 to 40 µM) in DMSO were mixed with a solution of DPPH (0.20 mM) in methanol. […] All tests and analyses were run in triplicate and averaged. The inhibition was calculated in terms of percentage using the formula below:DPPH radical scavenged (%) = [(AbC ‒ AbS)/AbC] × 100(2) where AbC is absorbance of control and AbS the absorbance of the test sample.

Another experiment deals with BChE (Homo sapiens, UniProt P06276). Description: Kinetic study against BChE (Lineweaver–Burk and Dixon plots). The experiment is classed as biochemical. As to the method:
as §1, §2

Experiment [4] deals with T1, β-secretase (BACE-1). As to the kind of experiment: In vitro β-secretase inhibitory FRET assay. The class given is biochemical. Conditions: 60 min incubation, read-out: IC50 (µM) against β-secretase activity. As to the method:
The inhibition ratio was calculated using the following equation:Inhibition (%) = [1 − (S − S0)/(C − C0)] × 100(1) where C is the fluorescence of control (enzyme, assay buffer, and substrate) after 60 min of incubation, C0 is the fluorescence of control at time 0, S is the fluorescence of tested samples (enzyme, sample solution, and substrate) after 60 min of incubation, and S0 the fluorescence of the tested samples at time 0.

The target in experiment [5] is acetylcholinesterase (AChE) (Homo sapiens, UniProt P22303). Description: biochemical. The class given is biochemical. The method, then:
as §3

Setting [6] is: mean ± SD, three independent experiments.

The structures appear in SMILES notation.

T1 sequence (P56817 46-501): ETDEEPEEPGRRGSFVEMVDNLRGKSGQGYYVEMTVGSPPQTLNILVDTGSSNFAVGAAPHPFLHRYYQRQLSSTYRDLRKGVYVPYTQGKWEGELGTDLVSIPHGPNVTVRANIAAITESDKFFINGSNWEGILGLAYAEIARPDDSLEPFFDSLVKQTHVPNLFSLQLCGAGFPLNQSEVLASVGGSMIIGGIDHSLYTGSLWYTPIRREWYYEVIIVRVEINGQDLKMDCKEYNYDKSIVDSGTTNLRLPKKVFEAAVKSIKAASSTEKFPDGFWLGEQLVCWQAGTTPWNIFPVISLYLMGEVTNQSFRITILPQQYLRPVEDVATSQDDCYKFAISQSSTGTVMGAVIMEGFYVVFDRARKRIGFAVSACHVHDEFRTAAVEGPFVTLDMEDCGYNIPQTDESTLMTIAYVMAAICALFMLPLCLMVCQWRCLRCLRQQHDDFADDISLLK
Chain of BChE (P06276 29-602): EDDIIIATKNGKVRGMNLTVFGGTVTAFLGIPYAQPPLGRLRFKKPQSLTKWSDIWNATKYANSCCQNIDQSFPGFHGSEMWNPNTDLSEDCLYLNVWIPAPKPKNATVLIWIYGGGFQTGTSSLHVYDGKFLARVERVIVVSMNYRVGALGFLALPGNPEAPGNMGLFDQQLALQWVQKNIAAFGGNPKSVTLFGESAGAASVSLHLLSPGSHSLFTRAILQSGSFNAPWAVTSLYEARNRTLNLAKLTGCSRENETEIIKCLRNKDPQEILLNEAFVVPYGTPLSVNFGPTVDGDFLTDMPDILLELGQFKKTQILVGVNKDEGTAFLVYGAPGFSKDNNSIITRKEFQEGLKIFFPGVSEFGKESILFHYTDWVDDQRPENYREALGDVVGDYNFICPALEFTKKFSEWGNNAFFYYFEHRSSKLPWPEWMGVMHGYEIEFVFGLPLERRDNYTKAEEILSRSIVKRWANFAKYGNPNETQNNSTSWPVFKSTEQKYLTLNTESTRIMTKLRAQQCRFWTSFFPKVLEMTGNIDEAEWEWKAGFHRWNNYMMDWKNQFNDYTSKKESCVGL
Chain of butyrylcholinesterase (BChE) (P06276 29-602): as above
Chain of AChE (P22303 32-614): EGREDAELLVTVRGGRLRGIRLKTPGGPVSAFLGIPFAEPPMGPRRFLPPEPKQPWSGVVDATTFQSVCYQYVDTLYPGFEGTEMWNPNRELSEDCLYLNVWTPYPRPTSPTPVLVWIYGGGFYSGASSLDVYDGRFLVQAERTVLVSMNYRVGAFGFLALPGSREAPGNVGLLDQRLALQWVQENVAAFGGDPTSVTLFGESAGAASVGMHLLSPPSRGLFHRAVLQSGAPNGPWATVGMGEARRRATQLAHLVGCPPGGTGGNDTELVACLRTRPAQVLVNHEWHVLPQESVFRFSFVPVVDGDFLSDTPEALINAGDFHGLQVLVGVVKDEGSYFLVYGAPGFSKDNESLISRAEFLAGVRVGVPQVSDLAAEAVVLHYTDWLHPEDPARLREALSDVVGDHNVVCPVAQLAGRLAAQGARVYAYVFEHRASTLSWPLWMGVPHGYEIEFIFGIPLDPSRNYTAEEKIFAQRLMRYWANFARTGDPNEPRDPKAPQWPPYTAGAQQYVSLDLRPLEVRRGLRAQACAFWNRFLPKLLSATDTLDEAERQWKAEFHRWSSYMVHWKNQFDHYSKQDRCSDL
Chain of acetylcholinesterase (AChE) (P22303 32-614): as above

Usually Ki stands for a dissociation constant, usually derived from enzyme kinetics or from competition with a known ligand. The IC50 is the concentration that inhibits the measured activity by half. Turning to `COc1ccc(-c2oc3cc(OC)c(I)cc3c(=O)c2OC2OC(COC(C)=O)C(OC(C)=O)C(OC(C)=O)C2OC(C)=O)cc1` (stereo not drawn) [Compound 2p, 6-Iodo-7-methoxy-2-(4-methoxyphenyl)-4H-chromen-4-one-3-O-2,3,4,6-O-tetraacetyl-β-d-glucopyranoside], the “Mode of inhibition of β-secretase” value at β-secretase (BACE-1) [1] (Lineweaver–Burk plot) is given as “non-competitive”. Moreover, the Ki on β-secretase (BACE-1) [1] (from Dixon plots, read-out: Ki for inhibition of β-secretase) was found to be 2.94 ± 0.02 µM; on AChE (from Dixon plots, read-out: Inhibition constant (Ki) against AChE), 2.36 ± 0.32 µM; on BChE (from Dixon plots) it was 1.62 ± 0.03 µM. Also, at AChE (Lineweaver–Burk plot), the “Mode of inhibition of AChE” value is listed as “non-competitive”. Besides, in experiment [2] (BChE selectivity index = IC50 (AChE)/IC50 (BChE)), the “SI AChE/BChE” value stood at 1.75. Also, the concentration for half-maximal inhibition (IC50) was 5.21 ± 0.03 µM in experiment [2] (setting [6]), 17.9 ± 0.04 µM in experiment [3], 25.2 ± 0.15 µM at β-secretase (BACE-1) [4] and 9.19 ± 0.03 µM in experiment [5] (setting [6]). Besides, at BChE (Lineweaver–Burk plot), the “Mode of inhibition of BChE” value is recorded as “non-competitive”. Besides, in experiment [5] (AChE selectivity index = IC50 (BChE)/IC50 (AChE)), the “SI BChE/AChE” value is 0.57.

Values taken from article PMC6804162, “Inhibitory Effects of Novel 7-Substituted 6-iodo-3-O-Flavonol Glycosides against Cholinesterases and β-secretase Activities, and Evaluation for Potential Antioxidant Properties” (Molecules, 2019).
